{"source": "patent US9980943B2", "about": "“Methods of treating muscular dystrophy” (BOARD OF REGENTS OF THE NEVADA SYSTEM OF HIGHER EDUCATION, …, priority 2013, dated 2018)", "type_in_all_cases": "cell-based, mouse", "key": {"[1]": {"test_system": "β-galactosidase in CMV-LacZ C2C12 myotubes", "test": "CMV-LacZ secondary screen in C2C12 myotubes (β-Gal stabilizing assay)", "details": "for CMV-LACZ in Myotubes, signal relative to DMSO: C2C12 CMV-LacZ myotubes, fold relative to DMSO; for CMV-LACZ in Myotubes, value relative to DMSO: SU9516 analogs, C2C12 CMV-LacZ, N=2", "in_short": "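Dose-response runs at 0.5–40 μM (0.5, 1, 5, 10, 20, 40 μM; N=2 per point) used a clonal C2C12 line carrying CMV-LacZ. Cells were assayed as myoblasts or as differentiated myotubes, and β-galactosidase levels were read with the FDG fluorogenic substrate.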"}, "[2]": {"test_system": "α7 integrin (LacZ reporter in α7+/LacZ myotubes)", "test": "Myotube α7 integrin FDG assay (Burkin assay in myotubes, 96-well)", "details": "for Burkin Assay in Myotubes, value relative to DMSO: SU9516 analogs, 96-well, N=3-6"}, "[3]": {"test_system": "β-galactosidase in CMV-LacZ C2C12 myoblasts", "test": "CMV-LacZ secondary screen in C2C12 myoblasts (β-Gal stabilizing assay)", "details": "for CMV-LACZ in Myoblasts (β-galactosidase activity relative to DMSO): CMV-LacZ C2C12 myoblasts; for CMV-LACZ in Myoblasts, value relative to DMSO: SU9516 analogs, C2C12 CMV-LacZ, N=2", "in_short": "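C2C12 myoblasts stably carrying a linearized CMV-driven LacZ construct, clone chosen by β-gal level in the myoblast FDG assay. Compounds tested in 96-well dose-response at 0.5, 1, 5, 10, 20 and 40 μM, N=2 replicates per point, to detect β-gal stabilization.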"}, "[4]": {"test_system": "α7 integrin (LacZ reporter in α7βgal+/− myoblasts)", "test": "Myoblast α7+/LacZ integrin FDG assay (Burkin assay in myoblasts, 96-well)", "details": "96-well; for Burkin Assay in Myoblasts, signal relative to DMSO: α7+/LacZ myoblasts; for Burkin Assay in Myoblasts, value relative to DMSO: SU9516 analogs, N=3-6"}}, "data": [{"smiles": "COc1ccc(OC)c(NC(=O)CN2CCC(NC(=O)c3ccccc3C)CC2)c1", "note": "[MLS001212882-01]", "values": [{"measurement": "CMV-LACZ in Myotubes, signal relative to DMSO", "setting": "[1]; 0.5 uM", "result": 1.0238}, {"measurement": "CMV-LACZ in Myotubes, signal relative to DMSO", "setting": "[1]; 1 uM", "result": 0.8705}, {"measurement": "CMV-LACZ in Myotubes, signal relative to DMSO", "setting": "[1]; 5 uM", "result": 1.0963}, {"measurement": "CMV-LACZ in Myotubes, signal relative to DMSO", "setting": "[1]; 10 uM", "result": 1.1133}, {"measurement": "CMV-LACZ in Myotubes, signal relative to DMSO", "setting": "[1]; 20 uM", "result": 1.1471}, {"measurement": "CMV-LACZ in Myotubes, signal relative to DMSO", "setting": "[1]; 40 uM", "result": 1.3024}, {"measurement": "Burkin Assay in Myotubes, α7 integrin LacZ reporter signal relative to DMSO", "setting": "[2]; 0.5 uM", "result": 0.9814}, {"measurement": "Burkin Assay in Myotubes, α7 integrin LacZ reporter signal relative to DMSO", "setting": "[2]; 1 uM", "result": 1.023}, {"measurement": "Burkin Assay in Myotubes, α7 integrin LacZ reporter signal relative to DMSO", "setting": "[2]; 5 uM", "result": 0.9072}, {"measurement": "Burkin Assay in Myotubes, α7 integrin LacZ reporter signal relative to DMSO", "setting": "[2]; 10 uM", "result": 0.8877}, {"measurement": "Burkin Assay in Myotubes, α7 integrin LacZ reporter signal relative to DMSO", "setting": "[2]; 20 uM", "result": 0.8421}, {"measurement": "Burkin Assay in Myotubes, α7 integrin LacZ reporter signal relative to DMSO", "setting": "[2]; 40 uM", "result": 0.9107}, {"measurement": "CMV-LACZ in Myoblasts (β-galactosidase activity relative to DMSO)", "setting": "[3]; 0.5 uM", "result": 1.1409}, {"measurement": "CMV-LACZ in Myoblasts (β-galactosidase activity relative to DMSO)", "setting": "[3]; 1 uM", "result": 1.1291}, {"measurement": "CMV-LACZ in Myoblasts (β-galactosidase activity relative to DMSO)", "setting": "[3]; 5 uM", "result": 0.9792}, {"measurement": "CMV-LACZ in Myoblasts (β-galactosidase activity relative to DMSO)", "setting": "[3]; 10 uM", "result": 1.0086}, {"measurement": "CMV-LACZ in Myoblasts (β-galactosidase activity relative to DMSO)", "setting": "[3]; 20 uM", "result": 1.3230}, {"measurement": "CMV-LACZ in Myoblasts (β-galactosidase activity relative to DMSO)", "setting": "[3]; 40 uM", "result": 1.0326}, {"measurement": "Burkin Assay in Myoblasts, signal relative to DMSO", "setting": "[4]; 0.5 uM", "result": 1.0132}, {"measurement": "Burkin Assay in Myoblasts, signal relative to DMSO", "setting": "[4]; 1 uM", "result": 1.07}, {"measurement": "Burkin Assay in Myoblasts, signal relative to DMSO", "setting": "[4]; 5 uM", "result": 1.049}, {"measurement": "Burkin Assay in Myoblasts, signal relative to DMSO", "setting": "[4]; 10 uM", "result": 0.9069}, {"measurement": "Burkin Assay in Myoblasts, signal relative to DMSO", "setting": "[4]; 20 uM", "result": 1.068}, {"measurement": "Burkin Assay in Myoblasts, signal relative to DMSO", "setting": "[4]; 40 uM", "result": 1.048}]}, {"smiles": "C=CCOc1ccc(C(=O)/C=C2/C(=O)Nc3ccccc32)cc1", "note": "[MLS001214264-01]", "values": [{"measurement": "CMV-LACZ in Myotubes, value relative to DMSO", "setting": "[1]; 0.5 uM", "result": 1.1210}, {"measurement": "CMV-LACZ in Myotubes, value relative to DMSO", "setting": "[1]; 1 uM", "result": 1.1905}, {"measurement": "CMV-LACZ in Myotubes, value relative to DMSO", "setting": "[1]; 5 uM", "result": 0.9411}, {"measurement": "CMV-LACZ in Myotubes, value relative to DMSO", "setting": "[1]; 10 uM", "result": 1.1534}, {"measurement": "CMV-LACZ in Myotubes, value relative to DMSO", "setting": "[1]; 20 uM", "result": 1.2424}, {"measurement": "CMV-LACZ in Myotubes, value relative to DMSO", "setting": "[1]; 40 uM", "result": 1.4482}, {"measurement": "Burkin Assay in Myotubes, value relative to DMSO", "setting": "[2]; 0.5 uM", "result": 0.9576}, {"measurement": "Burkin Assay in Myotubes, value relative to DMSO", "setting": "[2]; 1 uM", "result": 0.8975}, {"measurement": "Burkin Assay in Myotubes, value relative to DMSO", "setting": "[2]; 5 uM", "result": 0.9073}, {"measurement": "Burkin Assay in Myotubes, value relative to DMSO", "setting": "[2]; 10 uM", "result": 1.058}, {"measurement": "Burkin Assay in Myotubes, value relative to DMSO", "setting": "[2]; 20 uM", "result": 0.7165}, {"measurement": "Burkin Assay in Myotubes, value relative to DMSO", "setting": "[2]; 40 uM", "result": 0.7173}, {"measurement": "CMV-LACZ in Myoblasts, value relative to DMSO", "setting": "[3]; 0.5 uM", "result": 1.0657}, {"measurement": "CMV-LACZ in Myoblasts, value relative to DMSO", "setting": "[3]; 1 uM", "result": 1.1383}, {"measurement": "CMV-LACZ in Myoblasts, value relative to DMSO", "setting": "[3]; 5 uM", "result": 1.3058}, {"measurement": "CMV-LACZ in Myoblasts, value relative to DMSO", "setting": "[3]; 10 uM", "result": 0.9233}, {"measurement": "CMV-LACZ in Myoblasts, value relative to DMSO", "setting": "[3]; 20 uM", "result": 0.3870}, {"measurement": "CMV-LACZ in Myoblasts, value relative to DMSO", "setting": "[3]; 40 uM", "result": 0.4856}, {"measurement": "Burkin Assay in Myoblasts, value relative to DMSO", "setting": "[4]; 0.5 uM", "result": 0.8908}, {"measurement": "Burkin Assay in Myoblasts, value relative to DMSO", "setting": "[4]; 1 uM", "result": 0.8464}, {"measurement": "Burkin Assay in Myoblasts, value relative to DMSO", "setting": "[4]; 5 uM", "result": 0.743}, {"measurement": "Burkin Assay in Myoblasts, value relative to DMSO", "setting": "[4]; 10 uM", "result": 0.7009}, {"measurement": "Burkin Assay in Myoblasts, value relative to DMSO", "setting": "[4]; 20 uM", "result": 0.7879}, {"measurement": "Burkin Assay in Myoblasts, value relative to DMSO", "setting": "[4]; 40 uM", "result": 0.2394}]}, {"smiles": "CC(C)Oc1ccc(C(=O)/C=C2/C(=O)Nc3ccccc32)cc1", "note": "[MLS001214276-01]", "values": [{"measurement": "CMV-LACZ in Myotubes, value relative to DMSO", "setting": "[1]; 0.5 uM", "result": 0.7733}, {"measurement": "CMV-LACZ in Myotubes, value relative to DMSO", "setting": "[1]; 1 uM", "result": 0.9141}, {"measurement": "CMV-LACZ in Myotubes, value relative to DMSO", "setting": "[1]; 5 uM", "result": 2.0151}, {"measurement": "CMV-LACZ in Myotubes, value relative to DMSO", "setting": "[1]; 10 uM", "result": 11.1000}, {"measurement": "CMV-LACZ in Myotubes, value relative to DMSO", "setting": "[1]; 20 uM", "result": 0.5259}, {"measurement": "CMV-LACZ in Myotubes, value relative to DMSO", "setting": "[1]; 40 uM", "result": 0.4976}, {"measurement": "Burkin Assay in Myotubes, value relative to DMSO", "setting": "[2]; 0.5 uM", "result": 1.162}, {"measurement": "Burkin Assay in Myotubes, value relative to DMSO", "setting": "[2]; 1 uM", "result": 1.197}, {"measurement": "Burkin Assay in Myotubes, value relative to DMSO", "setting": "[2]; 5 uM", "result": 0.9019}, {"measurement": "Burkin Assay in Myotubes, value relative to DMSO", "setting": "[2]; 10 uM", "result": 0.6945}, {"measurement": "Burkin Assay in Myotubes, value relative to DMSO", "setting": "[2]; 20 uM", "result": 0.2362}, {"measurement": "Burkin Assay in Myotubes, value relative to DMSO", "setting": "[2]; 40 uM", "result": 0.07736}, {"measurement": "CMV-LACZ in Myoblasts, value relative to DMSO", "setting": "[3]; 0.5 uM", "result": 0.9516}, {"measurement": "CMV-LACZ in Myoblasts, value relative to DMSO", "setting": "[3]; 1 uM", "result": 0.8731}, {"measurement": "CMV-LACZ in Myoblasts, value relative to DMSO", "setting": "[3]; 5 uM", "result": 1.3014}, {"measurement": "CMV-LACZ in Myoblasts, value relative to DMSO", "setting": "[3]; 10 uM", "result": 1.2231}, {"measurement": "CMV-LACZ in Myoblasts, value relative to DMSO", "setting": "[3]; 20 uM", "result": 1.2922}, {"measurement": "CMV-LACZ in Myoblasts, value relative to DMSO", "setting": "[3]; 40 uM", "result": 0.1781}, {"measurement": "Burkin Assay in Myoblasts, value relative to DMSO", "setting": "[4]; 0.5 uM", "result": 1.328}, {"measurement": "Burkin Assay in Myoblasts, value relative to DMSO", "setting": "[4]; 1 uM", "result": 1.222}, {"measurement": "Burkin Assay in Myoblasts, value relative to DMSO", "setting": "[4]; 5 uM", "result": 0.6234}, {"measurement": "Burkin Assay in Myoblasts, value relative to DMSO", "setting": "[4]; 10 uM", "result": 0.3235}, {"measurement": "Burkin Assay in Myoblasts, value relative to DMSO", "setting": "[4]; 20 uM", "result": 0.2022}, {"measurement": "Burkin Assay in Myoblasts, value relative to DMSO", "setting": "[4]; 40 uM", "result": 0.02694}]}]}
